Read-outs that look alike come from different tables or passages of the source. A value given as a limit tells only on which side of the number the result lay.

Data set [1] concerns Nippostrongylus brasiliensis. Description: Activity against roundworms in rats, A.1: treatment 6 days after infection (patent infection), post-mortem worm counts. The conditions noted are these: 48 h, treated 6 days after infection, read-out: % Reduction of mean worm load. The data set is classed as in vivo. As for the experimental part:
In the Tables of results "s.c." means subcutaneous and the doses are expressed in mg/kg animal body weight. […] A.1. Rats were infected with 100 Nippostrongylus brasiliensis larvae each, by the subcutaneous route. After 6 days, when the infection was patent, the rats were randomised and allotted to groups of 5 animals each, ready for treatment. One group was used for each dose level of the test compound, which was administered by the oral or subcutaneous route, and in each experiment, one group of 10 animals was left untreated as a control. All the rats were killed for post-mortem worm counts 48 hours after treatment. The activities, expressed in terms of the percentage reduction in mean worm load of the treated groups compared with the untreated group, are shown in Table I.

Data set [2] has as its system Nippostrongylus brasiliensis. Description: Activity against roundworms in rats, A.2: treatment 24 hours after infection, post-mortem worm counts. The data set is classed as in vivo. The following applies: 144 h, treated 24 hours after infection, read-out: % Reduction of mean worm load. As for the experimental part: In the Tables of results "s.c." means subcutaneous and the doses are expressed in mg/kg animal body weight. […] A.2. Rats were infected with 100 Nippostrongylus brasiliensis larvae each, by the subcutaneous route. After 24 hours the rats were randomised and allotted to groups of 5 animals each, ready for treatment. Doses of the test compound were then administered to each group by the oral or subcutaneous route, one group of 10 animals being left untreated as a control. All the rats were killed for post-mortem worm counts 6 days after dosing. The activities, expressed in terms of the percentage reduction in mean worm load of the treated groups compared with the untreated control group, are given below in Table II.

Data set [3] can be described thus: Oral acute toxicity (LD50) in mice. The following applies: mouse, in vivo, observed during next 6 days. From the text: Mice were each treated orally with one of the compounds of formula I, and they were observed during the next 6 days. The LD50 figures obtained (doses lethal to 50% of mice tested) are shown in Table VII, expressed in mg/kg animal body weight.

Data set [4] relates to Cooperia oncophora and Ostertagia ostertagi. Description: C.1 Activity against Cooperia oncophora and Ostertagia ostertagi in their adult stages in calves, faecal egg counts. Format: in vivo. The conditions noted are these: s.c. (methanesulphonate salt). As for the experimental part: In the Tables of results "s.c." means subcutaneous and the doses are expressed in mg/kg animal body weight. […] C.1. Activity against Cooperia oncophora and Ostertagia ostertagi in their adult stages in calves. Worm-free, 6-7 week old calves were each infected with 15,000 C. oncophora and 15,000 O. ostertagi larvae. Approximately 3 weeks later, doses of the test compound were administered to each group of 2 animals by the subcutaneous route, one group of two animals being left untreated as a control. Individual faecal egg counts were determined 1 day before treatment and 5-7 days after treatment.

Another data set concerns Mycosphaerella pinodes. Nature of the data set: Minimum effective concentration totally inhibiting fungal growth, Mycosphaerella pinodes, potato dextrose agar tubes. The following applies: Didymella pinodes, 48 h; total inhibition of fungal growth; tested at 50, 10 or 2 ppm; 25° C, 2 days. Format: cell-based. The procedure: Test tubes containing 4.0 ml of molten potato dextrose agar at about 50° C were inoculated with 0.5 ml of suspension of test compound and 0.5 ml of fungal suspension delivered from a sterile syringe to give a final concentration of each compound of 50, 10 or 2 ppm. Two replicate tubes were inoculated with each fungal species. After the addition of test compounds and fungal inoculum to the molten medium the tubes were sloped and the agar was allowed to set. The tubes were incubated at 25° C for either 2 days (Mycosphaerella pinodes) or 3 days (Helminthosporium avenae). […] The suspensions of test compounds were prepared by grinding 0.025 g of test compound with sterile distilled water containing 0.1 ml of 0.1% Texofor FX170 wetting agent, followed by dilution to the concentration desired. The inoculum of Mycosphaerella pinodes was prepared as follows: A one to two week old culture on Coon's agar on plates was scraped off with a glass rod and sterile distilled water and filtered through muslin. The filtrate, containing the spores, was used for inoculation.

A further data set has as its system Fasciola hepatica. Nature of the data set: D. Activity against mature and immature liver flukes in sheep. The data set is classed as in vivo. The following applies: oral 25 mg/kg in gelatin capsules; for Mean % Reduction, Immature flukes: immature flukes in rest of liver; for Mean % Reduction, Mature flukes: mature flukes in bile ducts. The procedure: D. Activity against mature and immature liver flukes in sheep On the first day of the experiment a group of sheep were each infected with 300 metacercariae of liver fluke Fasciola hepatica and on the 56th day they were each infected with a further 300 metacercariae of F. hepatica. On day 70 of the experiment, doses of the test compounds of 25 mg/kg animal body weight were administered orally in gelatin capsules to groups of two animals per compound. One group of two animals was left untreated as controls. On day 98 of the experiment, all the sheep were killed. The number of mature flukes present in the bile ducts and the numbers of immature flukes present in the rest of the liver were counted. The activities, expressed in terms of the percentage reduction in mean fluke burdens compared with the untreated controls, are shown below in Table VI.

[5] abbreviates: sc, s.c. (methanesulphonate salt, aqueous).

A word on the LD50: it is the dose expected to kill half of the subjects tested. Read a low LD50 as greater toxicity. For `CCCCCSc1ccc(N2C(=O)CSC2=NC(=O)OC)c(NC(=O)CN(C)C)c1` [J, 3-[2-(2-dimethylaminoacetamido)-4-n-pentylthiophenyl]-2-methoxycarbonyliminothiazolidin-4-one], the inhibition in vivo at 100 mg/kg worked out at 59% in data set [1] (oral), 99% in data set [2] (oral) and 99% in data set [2] (setting [5]). In addition, the inhibition in vivo at 50 mg/kg in data set [2] (oral) and in data set [2] (setting [5]) was 99% each time. Further, the LD50 at 144 h in data set [3] is > 1000 mg/kg.

`COC(=O)N=C1SCC(=O)N1c1ccc(Sc2ccccc2)cc1NC(=O)CCN(C)C` [L, 3-[2-(3-dimethylaminopropionamido)-4-phenylthiophenyl]-2-methoxycarbonyliminothiazolidin-4-one]: the inhibition in vivo at 100 mg/kg in data set [1] (oral) turned out to be 90%. For the same compound, the inhibition in vivo at 50 mg/kg in data set [2] (oral) was determined as 81%; in data set [2] (setting [5]), 90%. The “% Reduction of mean egg count” value in data set [4] (15 mg/kg) is 84%. Further, the LD50 at 144 h in data set [3] was > 1000 mg/kg.

On to `COC(=O)N=C1SCC(=O)N1c1ccc(SCC2CCCCC2)cc1NC(=O)CN(C)C` [F, 3-[4-cyclohexylmethylthio-2-(2-dimethylaminoacetamido)phenyl]-2-methoxycarbonyliminothiazolidin-4-one], for which the inhibition in vivo at 100 mg/kg in data set [2] (oral) turned out to be 59%; in data set [2] (setting [5]), 46%. Moreover, the “% Reduction of mean egg count” value in data set [4] (25 mg/kg) is reported as 50%.

A word on the MIC: it is the lowest concentration found to suppress growth. High values mean a need for much substance, low ones inhibition by little substance. Regarding `COC(=O)N=C1SCC(=O)N1c1cc(Sc2ccccc2)ccc1NC(=O)CN(C)C` [Compound E, 3-[2-(2-dimethylaminoacetamido)-5-phenylthiophenyl]-2-methoxycarbonyliminothiazolidin-4-one], in the data set on Mycosphaerella pinodes, the MIC was < 2 µg/mL. For the same compound, the results for the inhibition in vivo at 100 mg/kg in data set [1] (oral) and in data set [1] (setting [5]) were 65% and 54%, respectively. Besides, the inhibition in vivo at 50 mg/kg in data set [2] (oral) amounted to 95%; in data set [2] (setting [5]) it was 99%. In addition, in data set [4] (15 mg/kg), the “% Reduction of mean egg count” value is reported as 100%. In addition, the LD50 at 144 h in data set [3] was > 1000 mg/kg.

Consider `CCSc1ccc(N2C(=O)CSC2=NC(=O)OC)c(NC(=O)CN(C)C)c1` [C, 3-[4-ethylthio-2-(2-dimethylaminoacetamido)phenyl]-2-methoxycarbonyliminothiazolidin-4-one], for which the results for the inhibition in vivo at 100 mg/kg in data set [1] (oral) and in data set [1] (setting [5]) were 74% and 89%, respectively. Also, the inhibition in vivo at 12.5 mg/kg in data set [2] (oral) came to 81%; in data set [2] (setting [5]), 86%. For the same compound, the inhibition in vivo at 50 mg/kg was found to be 90% in data set [2] (oral) and 98% in data set [2] (setting [5]). Also, the “Mean % Reduction, Immature flukes” value with Fasciola hepatica is reported as 85%. In addition, the “Mean % Reduction, Mature flukes” value in the data set with Fasciola hepatica was 72%. In addition, in data set [4] (15 mg/kg), the “% Reduction of mean egg count” value is listed as 100%. Also, the LD50 at 144 h in data set [3] is > 1000 mg/kg.

In the case of `CCN(CC)CC(=O)Nc1cc(Sc2ccccc2)ccc1N1C(=O)CSC1=NC(=O)OC` [Compound D, 3-[2-(2-diethylaminoacetamido)-4-phenylthiophenyl]-2-methoxycarbonyliminothiazolidin-4-one], the inhibition in vivo at 100 mg/kg in data set [1] (oral) was found to be 99%. Moreover, the inhibition in vivo at 100 mg/kg in data set [1] (setting [5]) stood at 88%. In data set [2] (oral), the inhibition in vivo at 12.5 mg/kg worked out at 96% and the inhibition in vivo at 50 mg/kg is 98%. For the same compound, in data set [2] (setting [5]), the inhibition in vivo at 25 mg/kg was found to be 96% and the inhibition in vivo at 50 mg/kg stood at 100%. Further, in the data set with Fasciola hepatica, the “Mean % Reduction, Immature flukes” value is reported as 75% and the “Mean % Reduction, Mature flukes” value is listed as “less than 50%”. The “% Reduction of mean egg count” value in data set [4] (15 mg/kg) was 98%. The LD50 at 144 h in data set [3] is > 1000 mg/kg.

On to `CCCCSc1ccc(N2C(=O)CSC2=NC(=O)OC)c(NC(=O)CN(C)C)c1` [G, 3-[4-n-butylthio-2-(2-dimethylaminoacetamido)phenyl]-2-methoxycarbonyliminothiazolidin-4-one], for which the values for the inhibition in vivo at 100 mg/kg in data set [1] (oral) and in data set [1] (setting [5]) were 96% and 84%, respectively. Besides, the inhibition in vivo at 12.5 mg/kg is 95% in data set [2] (oral) and 96% in data set [2] (setting [5]). Also, the figures for the inhibition in vivo at 50 mg/kg in data set [2] (oral) and in data set [2] (setting [5]) were 98% and 100%, respectively. Besides, in data set [3], the LD50 at 144 h is > 1000 mg/kg.

`CCCSc1ccc(N2C(=O)CSC2=NC(=O)OC)c(NC(=O)CN(C)C)c1` [K, 3-[2-(2-dimethylaminoacetamido)-4-n-propylthiophenyl]-2-methoxycarbonyliminothiazolidin-4-one]: the inhibition in vivo at 50 mg/kg in data set [1] (oral) was 99%; in data set [1] (setting [5]), 96%; in data set [2] (oral), 97%; in data set [2] (setting [5]), 98%. Besides, the inhibition in vivo at 3.125 mg/kg in data set [2] (oral) was 92%; in data set [2] (setting [5]) it was 96%. The “% Reduction of mean egg count” value in data set [4] (15 mg/kg) is 85%. Further, in data set [3], the LD50 at 144 h was > 1000 mg/kg.

For `COC(=O)N=C1SCC(=O)N1c1ccc(SC2CCCC2)cc1NC(=O)CN(C)C` [I, 3-[4-cyclopentylthio-2-(2-dimethylaminoacetamido)phenyl]-2-methoxycarbonyliminothiazolidin-4-one], the figures for the inhibition in vivo at 25 mg/kg in data set [2] (oral) and in data set [2] (setting [5]) were 97% and 87%, respectively. Also, the inhibition in vivo at 100 mg/kg in data set [2] (oral) was 96%; in data set [2] (setting [5]), 99%. Also, the LD50 at 144 h in data set [3] is > 1000 mg/kg.

For the compound `C=CCSc1ccc(N2C(=O)CSC2=NC(=O)OC)c(NC(=O)CN(C)C)c1` [B, 3-[4-allylthio-2-(2-dimethylaminoacetamido)phenyl]-2-methoxycarbonyliminothiazolidin-4-one], the inhibition in vivo at 100 mg/kg in data set [1] (oral) came out at 97%; in data set [1] (setting [5]), 90%. Moreover, the values for the inhibition in vivo at 50 mg/kg in data set [2] (oral) and in data set [2] (setting [5]) were 98% and 97%, respectively. The “% Reduction of mean egg count” value in data set [4] (15 mg/kg) was determined as 44%. Further, the LD50 at 144 h in data set [3] is > 1000 mg/kg.
